# Source: PubChem BioAssay AID702 (NMMLSC, 2007)
# Results filed as inconclusive are left out. Activity calls are given as the source filed them. No rule for the calls is given here.
# Molecular target: Integrin alpha-4 (Homo sapiens) (UniProt P13612)
# Assay: inhibition of LDV ligand binding to VLA-4 – cell-based, LDV-FITC binding, flow cytometry, dose response (AID 702)
# Integrin alpha-4 (Homo sapiens), sequence (P13612 whole entry, looked up): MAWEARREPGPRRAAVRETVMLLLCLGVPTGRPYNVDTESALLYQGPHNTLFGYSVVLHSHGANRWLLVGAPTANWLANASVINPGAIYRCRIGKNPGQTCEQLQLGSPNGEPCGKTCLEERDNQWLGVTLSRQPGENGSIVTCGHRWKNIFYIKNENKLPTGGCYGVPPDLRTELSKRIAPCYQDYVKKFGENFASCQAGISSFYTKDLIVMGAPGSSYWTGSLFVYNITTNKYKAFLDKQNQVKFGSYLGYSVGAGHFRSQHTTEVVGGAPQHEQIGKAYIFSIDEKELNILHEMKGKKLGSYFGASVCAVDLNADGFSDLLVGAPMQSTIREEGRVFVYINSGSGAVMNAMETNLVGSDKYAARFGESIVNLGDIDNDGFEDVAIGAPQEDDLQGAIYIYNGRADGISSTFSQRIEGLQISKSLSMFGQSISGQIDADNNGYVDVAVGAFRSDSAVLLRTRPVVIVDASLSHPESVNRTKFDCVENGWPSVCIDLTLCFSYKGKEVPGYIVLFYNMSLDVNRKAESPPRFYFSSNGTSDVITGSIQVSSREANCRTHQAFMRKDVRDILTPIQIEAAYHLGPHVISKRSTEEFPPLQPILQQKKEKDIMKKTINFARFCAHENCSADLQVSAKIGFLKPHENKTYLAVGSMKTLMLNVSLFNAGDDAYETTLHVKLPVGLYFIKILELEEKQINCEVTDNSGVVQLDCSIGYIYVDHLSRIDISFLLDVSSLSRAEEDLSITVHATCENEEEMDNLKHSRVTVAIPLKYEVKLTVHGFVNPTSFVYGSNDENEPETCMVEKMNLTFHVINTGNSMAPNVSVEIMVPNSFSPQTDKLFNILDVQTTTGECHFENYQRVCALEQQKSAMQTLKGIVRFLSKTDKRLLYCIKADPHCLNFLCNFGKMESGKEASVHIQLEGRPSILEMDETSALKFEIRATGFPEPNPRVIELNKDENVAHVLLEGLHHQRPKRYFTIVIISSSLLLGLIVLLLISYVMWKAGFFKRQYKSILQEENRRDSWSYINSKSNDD
outcome,EC50 [µM],Structure (SMILES)
inactive,,O=C1NC(=O)C(c2ccccc2)N1 (stereo not given)
inactive,,CCCCN1C(=O)NC(c2ccccc2)C1=O (stereo not given)
,4.27,CCOc1cc2[nH]c(=O)n(CC3CCC(C(=O)NC(C)CC)CC3)c(=O)c2cc1OCC (stereo not given)
inactive,,COc1cc2[nH]c(=O)n(CCCC(=O)N3CCOCC3)c(=O)c2cc1OC
inactive,,CCCCC1(C)C(=O)N(c2ccccc2)N(c2ccccc2)C1=O
inactive,,Cn1c(=O)cc(SCC(=O)N2CCN(C3CCCCC3)CC2)c2ccccc21
,4.13,CC(C)Oc1ccc(C(CC(=O)O)NC(=O)C2CCCCC2)cc1 (stereo not given)
inactive,,COc1cccc2sc(Nc3nc(-c4ccncc4)cs3)nc12
,17.3,O=C1C(CCS(=O)c2ccccc2)C(=O)N(c2ccccc2)N1c1ccccc1 (stereo not given)
inactive,,COc1cc2[nH]c3c(N4CCN(c5ccccn5)CC4)ncnc3c2cc1OC
,6.5,Cc1onc(-c2ccccc2)c1C(=O)NC(CC(=O)O)c1ccc(OC(C)C)cc1 (stereo not given)
inactive,,CCCCN1C(=O)C(c2ccccc2)N(c2ccccc2)C1=O (stereo not given)
inactive,,O=C(NCC12CC3CC(CC(C3)C1)C2)c1nn2c(c1Cl)NC(c1ccco1)CC2C(F)(F)F (stereo not given)
inactive,,CCOc1cc2[nH]c(=O)n(CCCC(=O)NCc3ccco3)c(=O)c2cc1OCC
inactive,,CCOc1cc2[nH]c(=O)n(CCC(=O)NCCOC)c(=O)c2cc1OCC
,5.14,COc1cccc2sc(Nc3nnc(-c4ccccc4Cl)o3)nc12
,20.2,N/C(=N/O)c1nc(N2CCCC2)nc(N(c2ccccc2)c2ccccc2)n1
inactive,,CCOc1cc2[nH]c(=O)n(CCCC(=O)N3CCCC3)c(=O)c2cc1OCC
,52.6,Cc1cc(C)cc(-n2ccnc(SCC(=O)Nc3ccc(Cl)cc3F)c2=O)c1
inactive,,COc1cccc2sc(Nc3nc(C)c(C(C)=O)s3)nc12

outcome,EC50 [µM],Structure (SMILES)
inactive,,CCCCC1(C(=O)O)C(=O)N(c2ccccc2)N(c2ccccc2)C1=O
inactive,,COc1cc2[nH]c(=O)n(CCC(=O)N3CCc4ccccc4C3)c(=O)c2cc1OC
,5.13,CCOc1cc2[nH]c(=O)n(CCCCC(=O)NC3CCCCCC3)c(=O)c2cc1OCC
inactive,,O=C(O)CCCn1c(=O)[nH]c2cc3c(cc2c1=O)OCO3
,31.8,Cc1oc2cc(O)ccc2c(=O)c1Oc1ccccc1Br
inactive,,CCOc1cc2[nH]c(=O)n(CCCN3CCCC3=O)c(=O)c2cc1OCC
inactive,,CCCCC1(O)C(=O)N(c2ccccc2)N(c2ccccc2)C1=O
,1.06,CCCCC1C(=O)N(c2ccccc2)N(c2ccccc2)C1=O
inactive,,CCCCN1C(=O)N(c2ccccc2)C(CCCC)(c2ccccc2)C1=O (stereo not given)
,0.08,CCCOc1ccc(C(CC(=O)O)NC(=O)C23CC4CC(CC(C4)C2)C3)cc1 (stereo not given)
inactive,,O=C1NC(=O)N(c2ccccc2)C1c1ccccc1 (stereo not given)
,4.6,CCCCCNC(=O)CCCCn1c(=O)[nH]c2cc(OCC)c(OCC)cc2c1=O
,14.1,O=C(Cn1nc(-c2ccc3c(c2)OCCO3)ccc1=O)Nc1ccc(N2CCOCC2)cc1
inactive,,COc1cc2[nH]c(=O)n(CCC(=O)NCc3cccnc3)c(=O)c2cc1OC
,45.1,C=C(C)C1Cc2c(C)nn(-c3nc(C)cc(C)n3)c2C1 (stereo not given)
inactive,,CCOc1cc2[nH]c(=O)n(CCCCCC(=O)NCc3ccco3)c(=O)c2cc1OCC
inactive,,COc1ccccc1-c1nnc(Nc2nc3c(OC)cccc3s2)o1
inactive,,COc1cc(Cn2c(-c3nonc3N)nc3ccccc32)ccc1C
,2.34,CCOc1cc2[nH]c(=O)n(CC3CCC(C(=O)NCCC(C)C)CC3)c(=O)c2cc1OCC (stereo not given)
,0.09,CCOc1ccc(C(CC(=O)O)NC(=O)C23CC4CC(CC(C4)C2)C3)cc1 (stereo not given)
